Assay [1] relates to α-SMA. In words: Immunocytochemical analysis of α-SMA expression, rabbit corneal stromal cells. The assay is classed as cell-based. The conditions noted are these: 10 mM EP. On the procedure:
FIG. 4. Immunocytochemical analysis of α-SMA expression. Rabbit corneal stromal cells in P2 growing in DMEM/F12 with 10% FBS were subcultured into 35 mm tissue culture dishes. After 24 hrs of incubation, the media were replaced with DMEM/F12 medium containing 1% FBS and TGF-β1 with or without (control) 10 mM EP and incubated for four days (media were changed every 24 hours). The cells were fixed and stained for α-SMA (green) using an indirect fluorescence technique as described herein.
For immunocytochemical analyses, the cells were cultured on glass cover slips or tissue culture dishes. Cells were rinsed with phosphate-buffered saline (PBS), fixed with paraformaldehyde-lysine-periodate and permeabilized with PIPES buffer containing 0.2% Triton X-100, as described previously (Guerriero et al., Invest. Opthalmol. Vis. Sci. 2007; 48: 627-635). Fixed and permeabilized cells were reacted with 10% heat-inactivated goat serum in PBS, pH 7.5, for 45 minutes to block the nonspecific binding of the secondary antibody, rinsed with PBS, and then treated with the primary and secondary antibodies as described previously (Guerriero et al. Invest. Opthalmol. Vis. Sci. 2007; 48: 627-635). Primary antibodies included monoclonal rat anti-α smooth muscle actin (SMA) and anti-fibronectin. […]

The test system of assay [2] is GR-1 neutrophils. In words: Mouse corneal wound model, FACS with neutrophil marker GR-1. The conditions noted are these: day 2 post-wounding. The assay is classed as in vivo, Mus musculus strain C57. The source says: A mouse model of corneal wound healing and inflammation induced by lipopolysacharide (LPS) was used to test the effect of EP. Khatari et al., Invest. Opthalmol. Vis. Sci. (2002) 43:2278-2284. Briefly, mice (Mus musculus strain C57, age approx. 2 months) were obtained from Charles River Laboratories in accordance with institutional protocols and divided into the following treatment groups (with 3 samples in each group):
Prior to wounding, all mice were anesthetized with an intraperitoneal injection of 50 mg/kg ketamine with 5 mg/kg xylazine. Topical anesthesia was further achieved with an additional 1 drop of 0.5% proparacaine per eye. Once the animal was sufficiently anesthetized, a corneal wound was constructed in each eye using a sterile 26-gauge needle that penetrated the epithelium and the superficial layers of the stroma. This linear scratch extended from the medial to lateral canthus (FIG. 12). 10 μg of the bacterial super-antigen LPS (Pseudomonas aeruginosa lipopolysaccharide, Sigma) was applied to the wound using a 10 μl pipette and allowed to penetrate the cornea for 5 minutes. Addition of bacterial endotoxin ensured a robust inflammatory response.
The wound was then washed with phosphate buffered saline (PBS/non-pyrogenic dH2O). […] The delivery and concentration of EP was determined according to Devamanoharan et al. (1999); 200(1-2):103-09. […]

Assay [3] has as its system type III collagen, tenascin and fibronectin. In words: Western blot of TGF-β1 activated rabbit corneal keratocytes: type III collagen, tenascin, fibronectin. The assay is classed as cell-based. To be noted: TGF-β1 (10 ng/ml)+1% FBS, two days, compared to controls with no treatment. Here is the method: FIGS. 19A and 19B. Western blot analyses: Rabbit corneal keratocytes were isolated and cultured in serum-free DMEM/F12 into 60 mm tissue culture dishes. After 24 hrs of incubation, the media were replaced with DMEM/F12 medium containing TGF-β1(10 ng/ml)+1% FBS without (control) or with EP or EP-derivatives for two days. The cells were extracted in RIPA buffer and the extracts containing 5 μg of total proteins were loaded per lane for Western blot analysis.
Keratocytes or fibroblasts grown under different culture conditions were extracted in RIPA buffer (9.1 mM dibasic sodium phosphate, 1.7 mM monobasic sodium phosphate, 150 mM NaCl, pH, 7.4, 1% Nonidet P-40, 0.5% sodium deoxycholate, 0.1% SDS, 0.03 TIU/mL aprotinin, 1 mM sodium orthovanadate, and 100 μg/mL phenylmethylsulfonyl fluoride (PMSF)). Aliquots of cell extracts containing 50 or 100 μg protein were subjected to SDS-PAGE. Protein bands on SDS-PAGE were electrophoretically transferred to IMMOBILON-P™ membrane (Millipore Corp., Bedford, Mass.), stained with 0.1% Coomassie blue 250 in 40% methanol/1% acetic acid for 1 minute, destained one to three times with 50% methanol/1% acetic acid, scanned for densitometric comparisons of relative concentrations of proteins per lane, destained with methanol, and subjected to Western blot analysis. Immunoreactive bands were detected using chemiluminescence Western chemiluminescence reagents.
As described in Example 1, corneal stromal cells were isolated from rabbit corneas and cultured using the same procedures. The keratocytes in serum free media were treated with b-FGF (40 ng/ml)+HS (5 μg/ml) with or without 15 mM EP or 1, 2.5 or 5 mM following EP derivatives: 2-oxopropionic acid 3-methoxyphenyl ester, 2-oxopropionic acid 2-ethoxyethyl ester, 2-oxopropionic acid 2-chloroethyl ester, 2-oxopropionic acid isopropyl ester, 2-oxopropionic acid butyl ester, 2-oxopropionic acid p-tolyl ester, 2-oxopropionic acid tert-butyl ester. […] The relative levels of the expression of specific proteins were analyzed by Western blot analyses of the cell lysates as described supra.
A general note: Immunoblotting shows a protein as a band on a membrane.

This is an account of results in patent publication US8815946B2, “Inhibition of proliferation and fibrotic response of activated corneal stromal cells” (University of Pittsburgh—of the Commonwealth System of …, priority 2008, dated 2014).

As to `CCOC(=O)C(C)=O` [ethyl pyruvate], in assay [1], the “TGF-β1 induced expression of α-SMA (immunocytochemical)” value is recorded as “downregulated”. Also, the “neutrophils (GR-1) by FACS” value in assay [2] was determined as 61.00±42.53. For the same compound, the “levels of type III collagen, tenascin and fibronectin (Western blot)” value in assay [3] is listed as “reduced levels”.
